{
  "source": "patent US8629164B2",
  "about": "“Inhibitors of NF-κB” (Profectus Biosciences, Inc., priority 2009, dated 2014)",
  "key": {"RelB": {"target": "T1, RelB (Homo sapiens, UniProt Q01201)", "T1 sequence (Q01201 1-579)": "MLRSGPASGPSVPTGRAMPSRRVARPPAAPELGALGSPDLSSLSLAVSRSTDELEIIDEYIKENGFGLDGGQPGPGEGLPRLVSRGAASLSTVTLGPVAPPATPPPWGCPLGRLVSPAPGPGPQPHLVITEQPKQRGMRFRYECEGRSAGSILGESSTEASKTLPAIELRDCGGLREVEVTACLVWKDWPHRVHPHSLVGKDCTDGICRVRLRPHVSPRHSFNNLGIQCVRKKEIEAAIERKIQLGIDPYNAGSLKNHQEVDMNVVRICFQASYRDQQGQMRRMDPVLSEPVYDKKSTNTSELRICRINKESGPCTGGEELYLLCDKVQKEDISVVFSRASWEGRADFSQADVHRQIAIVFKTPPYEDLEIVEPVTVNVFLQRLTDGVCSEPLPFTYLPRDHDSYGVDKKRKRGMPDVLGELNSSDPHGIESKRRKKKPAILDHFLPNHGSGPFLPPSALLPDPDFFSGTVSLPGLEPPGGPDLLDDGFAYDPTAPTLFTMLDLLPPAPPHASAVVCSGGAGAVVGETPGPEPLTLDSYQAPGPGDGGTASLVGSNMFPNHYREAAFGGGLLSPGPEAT", "T1 sequence (Q00653 1-454 partner limits assumed)": "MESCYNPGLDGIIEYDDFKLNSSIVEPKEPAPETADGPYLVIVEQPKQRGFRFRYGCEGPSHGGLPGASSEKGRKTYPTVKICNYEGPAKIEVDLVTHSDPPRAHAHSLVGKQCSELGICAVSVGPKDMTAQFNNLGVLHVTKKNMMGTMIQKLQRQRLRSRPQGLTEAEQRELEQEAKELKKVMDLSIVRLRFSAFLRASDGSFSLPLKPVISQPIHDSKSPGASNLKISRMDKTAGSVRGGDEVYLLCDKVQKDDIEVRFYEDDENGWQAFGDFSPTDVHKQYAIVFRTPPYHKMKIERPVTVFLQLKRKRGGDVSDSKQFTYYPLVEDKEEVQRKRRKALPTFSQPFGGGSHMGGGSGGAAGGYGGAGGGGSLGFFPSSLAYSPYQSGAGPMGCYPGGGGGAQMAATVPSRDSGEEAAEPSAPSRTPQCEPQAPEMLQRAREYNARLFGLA", "experiment": "TransAM NF-κB Family DNA Binding ELISA, RelB"}, "[1]": {"tested_on": "mouse embryonic fibroblasts (MEFs)"}, "[2]": {"tested_on": "human RPMI8226 multiple myeloma", "experiment": "RPMI8226 multiple myeloma xenograft in mice", "assay_type": "in vivo", "method": "Neither PS-341 (1 mg/kg iv days 1, 4/week×4 weeks) nor the compound of Example 2 (15 mg/kg ip QD×21) treatment achieved statistical significant tumor growth inhibition in this study as compared to vehicle treatment (P>0.10).\nSeveral compounds have been assessed for efficacy studies in rodent disease models. We first sought to obtain in vivo efficacy of the compounds in multiple myeloma which has high incidence of constitutive activation of both the canonical and non-canonical pathways."}, "[3]": {"tested_on": "MDA-MB-231 breast cancer cells", "experiment": "Cytotoxicity and radio-sensitization in MDA-MB-231 breast cancer cells", "assay_type": "cell-based"}, "NF-κB [4]": {"tested_on": "NF-κB", "experiment": "NF-κB DNA binding activity of p65+/+ MEF nuclear extract after IR", "details": "p65+/+ MEFs"}, "NF-κB [5]": {"tested_on": "NF-κB", "experiment": "NF-κB-dependent luciferase expression after IR in p65+/+ MEFs", "details": "10 Gy IR"}, "[6]": {"tested_on": "collagen-induced arthritis", "experiment": "Mouse model of collagen-induced rheumatoid arthritis (CIA)"}, "[7]": {"tested_on": "IL-8 secretion from MDA-MB-231 cells", "experiment": "IL-8 secretion from MDA-MB-231 cells", "assay_type": "cell-based", "method": "(§1) Specifically, A and B show the effects of the compound of Example 1 on IL-6 and IL-8 secretion from MDA-MB-231 cells stimulated by 20 ng/mL TNF-α. The cells were treated with the indicated concentrations of the compound of Example 1 for 2 hours, and then TNF-α was added and incubation continued for 4 hours."}, "COX-2 expression": {"tested_on": "COX-2 expression", "experiment": "LPS-induced COX-2 expression in RAW264.7 cells", "assay_type": "cell-based, mouse", "details": "pretreatment, at 6 to 12 h", "from_the_text": "LPS stimulation induces the expression of COX-2 the enzyme responsible for prostaglandin E2."}, "[8]": {"tested_on": "human peripheral blood mononuclear cells (hPBMCs)", "experiment": "Cytotoxicity to hPBMCs (CellTiter-Glo)", "assay_type": "cell-based", "method": "Human peripheral blood mononuclear cells (hPBMCs) were treated with example 1 or DHMEQ and the percentage of viable cells was assessed 24 hours post drug treatment. The graph represents the mean±the standard deviation of three replicate experiments.\nThe cytotoxicity profile of the compound of Example 1. The cytotoxicity of the compound of Example 1 was determined for human peripheral blood mononuclear cells (hPBMCs). As with the activity assay, the hPBMCs were treated with 0, 0.2, 1, 10, 20 and 40 μM of the compound of Example 1 for 2 hours, and then induced with 20 ng/ml TNF-α for 48 hours. The number of viable cells was determined using CellTiter-Glo luminescent cell viability assay (Promega (cat #G7573)). […] The selectivity index (the ratio of cytotoxicity CC50 to inhibitory IC50) is assigned to the compound of Example 1."}, "[9]": {"tested_on": "IL-6 secretion from MDA-MB-231 cells", "experiment": "IL-6 secretion from MDA-MB-231 cells", "assay_type": "cell-based", "method": "as §1"}, "soluble IL-2Rα": {"tested_on": "soluble IL-2Rα", "experiment": "Soluble IL-2Rα expression in PHA-P activated hPBMCs", "assay_type": "cell-based, human", "details": "10 μM, three days", "method": "The graph is the mean of 2 independent experiments.\nSoluble IL-2Rα is transcriptionally regulated by NF-κB. […] Human PBMCs were treated with 0, 0.2, 1, 10, 20 and 40 μM of the compound of Example 1 concurrent with PHA-P activation. The cells were cultured for an additional three days and media was harvested for marker assessment."}, "[10]": {"details": "RelB binding IC50 (uM), cells without % sign"}, "[11]": {"details": "20 μM, TNF-α 20 ng/mL, MDA-MB-231"}},
  "note": "Entries after “also recorded” stand apart in the source; their conditions may differ.",
  "data": [
    {"smiles": "O=C(NC1=CC(=O)C2OC2C1O)c1cc2ccccc2nc1O", "note": "(racemic) [Example 2, (±)-2-hydroxy-N-(2-hydroxy-5-oxo-7-oxabicyclo[4.1.0]hept-3-en-3-yl)quinoline-3-carboxamide]", "values": [
      {"measurement": "IC50", "setting": "RelB; [10]", "value": 2, "unit": "µM"},
      {"measurement": "IC50", "setting": "RelB; RelB binding to DNA IC50, FIG. 8, non-canonical pathway", "value": "~2", "unit": "µM"},
      {"measurement": "cytotoxicity to MEFs", "setting": "[1]; 1.4 μM", "value": "non-cytotoxic"},
      {"measurement": "radio-sensitivity of PARP-1+/+ MEFs to IR", "setting": "[1]; 1.4 μM", "value": "increased radio-sensitivities"},
      {"measurement": "LD50 of IR + compound", "setting": "[1]; p65+/+ MEFs, 1.4 μM, IR alone 2.3 Gy", "value": 1.5, "unit": "Gy"},
      {"measurement": "radio-sensitization of p65−/− MEFs", "setting": "[1]; p65−/− MEFs", "value": "no further effect"},
      {"measurement": "RPMI8226 tumor growth reduction", "setting": "[2]; Example 2 15 mg/kg ip QD×21, xenograft mice, 15 mg/kg", "value": "same level of tumor growth reduction as PS-341; also recorded: reduced RPMI8226 tumor growth"},
      {"measurement": "tolerability in xenograft model", "setting": "[2]; mouse, in vivo", "value": "better tolerated than PS-341"},
      {"measurement": "enhancement of radiation effect", "setting": "[3]; 0.2 μM, MDA-MB-231", "value": 1.5, "unit": "fold"},
      {"measurement": "LD50 of IR + compound", "setting": "[3]; 0.2 μM, MDA-MB-231, IR alone 2.55 Gy", "value": 1.66, "unit": "Gy"},
      {"measurement": "LD50, single agent cytotoxic effect", "setting": "[3]; MDA-MB-231 cells", "value": 0.4, "unit": "µM"},
      {"measurement": "nuclear extract NF-κB DNA binding activities after IR", "setting": "NF-κB [4]", "value": "significantly decreased"},
      {"measurement": "NF-κB-dependent luciferase expression after IR", "setting": "NF-κB [5]", "value": "reduced luciferase gene transcription significantly; also recorded: significantly reduced luciferase expression"},
      {"measurement": "anti-inflammation effects vs vehicle treated group", "setting": "[6]; Example 2 15 mg/kg s.c. qd 21-35, etanercept 50 ug/mouse ip qd 21-35, P<0.05", "value": "statistal significant anti-inflammation effects"},
      {"measurement": "hind paw erythema and swelling (arthritis index score)", "setting": "[6]; daily d21-d35", "value": "significantly reduced"},
      {"measurement": "histological evaluation of joints", "setting": "[6]; day 35", "value": "significant reduction of inflammation"},
      {"measurement": "myeloperoxidase activities", "setting": "[6]; mouse, in vivo", "value": "concomitant reduction"},
      {"measurement": "tolerability of efficacious doses in mice", "setting": "[6]; mouse, in vivo", "value": "well tolerated"}
    ]},
    {"smiles": "O=C(NC1=CC(=O)C2OC2C1O)c1cccnc1O", "note": "(racemic) [Example 1, (±)-2-hydroxy-N-(2-hydroxy-5-oxo-7-oxabicyclo[4.1.0]hept-3-en-3-yl)nicotinamide]", "values": [
      {"measurement": "IL-8 secretion, TNF-α stimulated", "setting": "[7]; [11]", "value": "completely inhibited"},
      {"measurement": "inhibition of constitutive IL-8 secretion", "setting": "[7]; MDA-MB-231, unstimulated", "value": "dose-dependent manner"},
      {"measurement": "IC50", "setting": "RelB; [10]", "value": 7.4, "unit": "µM"},
      {"measurement": "LPS-induced COX-2 expression", "setting": "COX-2 expression", "value": "strong inhibition"},
      {"measurement": "selectivity (cytotoxicity CC50 to inhibitory IC50) compared to DHMEQ", "setting": "[8]", "value": "greater selectivity"},
      {"measurement": "cytotoxicity to hPBMCs", "setting": "[8]; up to 40 μM tested", "value": "little detectable toxicity; also recorded: little cytotoxic effect"},
      {"measurement": "IL-6 secretion, TNF-α stimulated", "setting": "[9]; [11]", "value": "completely inhibited"},
      {"measurement": "inhibition of constitutive IL-6 secretion", "setting": "[9]; MDA-MB-231, unstimulated", "value": "dose-dependent manner"},
      {"measurement": "effect on sIL-2Rα", "setting": "soluble IL-2Rα", "value": "statistically significant affect"}
    ]}
  ]
}
